From patent US20070117864A1, “Composition for preventing and treating hepatoma” (Tokyo University of Agr. & Tech. TLO Co., Ltd., priority 2003, published 2007)

Columns and labels:
Assay type in all cases: cell-based, rat
AH109A cells [1] = assay: cell cycle analysis of hepatoma cells by PI staining and flow cytometry
Experimental: The effects of 6.25 μM and 12.5 μM ENL on the cell cycle of AH109A cells were analyzed. The AH109A cells were inoculated into a 6-well plate (NUNC) at the density of 2.5×10^5 cells per well, and the cells were cultured for 0, 24 and 48 hours at 37° C. in a CO2 incubator. The AH109A cells cultured under the respective treatment conditions were recovered in 2-ml sampling tubes (Nippon Genetex, Tokyo); these cells were centrifuged for 5 minutes at 1000 rpm (190×g), 4° C., and then washed twice with PBS (−). Subsequently, 300 μl of a PI solution (1 mg propidium iodide (SIGMA)/20 ml 0.1% Triton X-100, 0.1% sodium citrate (Wako Pure Chemical Industries)) was added, and the preparation was dyed by allowing the preparation to kept quietly on ice for 30 minutes with the light blocked. The cell cycle was analyzed with a flow cytometer (EPICS ELITE ESP; Beckman-Coulter, Hialeah, Fla., USA).

M-cells = assay: proliferative activity of M-cells by [3H]thymidine incorporation; conditions: in vitro
Experimental: Male Donryu rats (4 to 10 weeks of age) were anesthetized by intraperitoneal injection of Nembutal at the dose of 5 mg/0.1 ml/100 g of body weight, and blood was collected by cutting the carotid artery. Subsequently, following disinfection using a hibiten solution, the abdomens of the animals were opened in a clean bench, and the mesenteric membranes were removed one by one and washed with PBS (−), and were then recovered in another 15 ml of PBS (−). The same amount of 0.5% trypsin in PBS (−) was added, and the preparation was agitated for 20 minutes at 37° C. Subsequently, 5 ml of a 10% CS/MEM was added, to stop the trypsin reaction. Then, the preparation was subjected to pipetting by means of a Komagome Pipette, and filtrated using a metal mesh. The filtrate was centrifuged for 10 minutes at 1500 rpm (440×g), 4° C., and was washed with PBS (−). The collected cells were inoculated into a 6 cm dish with an attached grid (2 mm square) at the density of 1.5 to 2.0×10^5 cells. The medium of 10% CS/MEM was used, and the medium was changed on the day following collection and every other day thereafter. […] Subsequently, the proliferation activity was measured as above-mentioned in (3).

AH109A cells [2] = assay: in vitro invasion assay of AH109A cells beneath mesothelial cell (M-cell) monolayer
Experimental: The tumor invasion activity was measured using a partially modified version (Miura Y., Shiomi H., Sakai F., and Yagasaki K. 1997 Assay systems for screening food components that have anti-proliferative and anti-invasive activity to rat ascites hepatoma cells: In vitro and ex vivo effects of green tea extract. Cytotechnology 23: 127-132) of the in vitro invasion assay method of Akedo et al (Akedo H, Shinkai K, Mukai M, Mori Y, Tateishi R, Tanaka K, Yamamoto R, Morishita T. Interaction of rat ascites hepatoma cells with cultured mesothelial cell layers: a model for tumor invasion. Cancer Res. 1986 May; 46(5):2416-22).
Mesothelial cells (M-cells) directly prepared from rat mesenteries to culture were cultured for 7 to 10 days until a confluent monolayer was formed, and subsequently, the medium was changed to 3 ml of the respective experimental media. AH109A cells were overlayed onto the mesothelial cells at the density of 2.4×10^4 cells, and were gently agitated, and were cultured in a CO2 incubator. […] The numbers of cells and numbers of colonies of the AH109A cells that had infiltrated beneath the mesothelial cell monolayer were counted in 10 places of 2-mm square divisions selected at random for 1 dish, and the mean values of the numbers obtained by calculating these counts per square centimeter were taken as an index of the tumor invasion activity. […]

[3] = ENL treatment for 24 hours, versus 0 μM control

In the case of `O=C1OCC(Cc2cccc(O)c2)C1Cc1cccc(O)c1` (stereo not drawn) [Enterolactone, enterolactone], the “effect on the cell cycle” value (AH109A cells [1]; ENL treatment for 0 hours, various concentrations) was “no effect”, the “proportion of the G1 phase” value (AH109A cells [1]; [3]) was “increase” and the “proportion of the S phase” value (AH109A cells [1]; [3]) was “decrease”. The “proliferation of M-cells (normal cells)” value (M-cells) was “inhibit the proliferation of M-cells in a dose-dependent manner”, the “ENL concentration at which cell toxicity was seen in the M-cells of the invasion assay system” value (AH109A cells [2]; M-cells in tumor invasion assay) was at least 25 µM and the “effect on tumor invasion of AH109A cells” value (AH109A cells [2]; in vitro, 24 hours on M-cell monolayer) was “dose-dependent inhibitory effect”.
